Measured values published in ChEMBL document CHEMBL1938341, “Alkylated flavanones from the bark of Cryptocarya chartacea as dengue virus NS5 polymerase inhibitors” (J Nat Prod, 2011).
pIC50: −log10 of the molar value.

Tests used:
[1] = Growth inhibition of human KB cells at 10 ug/ml; format: cell-based; settings: read-out: GI
[2] = Inhibition of Bovine diarrhea virus NS5 polymerase-mediated RNA synthesis expressed in Escherichia coli Rosetta pLac1 cells assessed as [3H]GTP incorporation after 5 mins by scintillation counting; set-up: species or system Bovine viral diarrhea virus 1
[3] = Inhibition of Dengue virus 2 NS5 polymerase-mediated RNA synthesis expressed in Escherichia coli Rosetta pLac1 cells assessed as [3H]GTP incorporation after 5 mins by scintillation counting; set-up: species or system dengue virus type 2; settings: for pIC50: read-out: IC50
KB = test: Cytotoxicity against human KB cells; format: cell-based

pIC50 [2]	pIC50 [3]	IC50 [3]	Compound	inhibition at 10 ug/ml [1] [%]	pIC50 (KB)
< 4.30	5.05	–	O=C(O)CCC[C@@H](/C=C/c1ccccc1)c1c(O)cc2c(c1O)C(=O)C[C@H](c1ccccc1)O2	11	–
< 4.30	4.82	–	O=C(O)CCC[C@H](/C=C/c1ccccc1)c1c(O)cc2c(c1O)C(=O)C[C@H](c1ccccc1)O2	0	–
> 6.00	7.70	–	Nc1nc2c(ncn2[C@@H]2O[C@H](COP(=O)(O)OP(=O)(O)OP(=O)(O)O)C[C@H]2O)c(=O)[nH]1	–	–
< 4.30	5.62	–	O=C(O)CCCC(/C=C/c1ccccc1)c1c(O)c2c(c(C(/C=C/c3ccccc3)CCCC(=O)O)c1O)OC(c1ccccc1)CC2=O (racemic)	0	–
< 4.30	5.54	–	O=C(O)CCC/C=C/C(c1ccccc1)c1c(O)c(C(/C=C/c2ccccc2)CCCC(=O)O)c(O)c2c1OC(c1ccccc1)CC2=O (racemic)	0	–
< 4.30	5.74	–	O=C(O)CCC/C=C/C(c1ccccc1)c1c(O)c2c(c(C(/C=C/c3ccccc3)CCCC(=O)O)c1O)OC(c1ccccc1)CC2=O (racemic)	0	–
< 4.30	5.38	–	O=C(O)CCC/C=C/C(c1ccccc1)c1c(O)c2c(c(C(/C=C/CCCC(=O)O)c3ccccc3)c1O)OC(c1ccccc1)CC2=O (racemic)	0	–
< 4.30	4.14	–	O=C(O)CCC/C=C/C(c1ccccc1)c1c(O)cc2c(c1O)C(=O)CC(c1ccccc1)O2 (racemic)	0	–
< 4.30	4.83	–	O=C(O)CCCC(/C=C/c1ccccc1)c1c(O)cc2c(c1O)C(=O)CC(c1ccccc1)O2 (racemic)	3.2	–
< 4.30	4.57	–	O=C(O)CCC[C@H](/C=C/c1ccccc1)c1c(O)cc2c(c1O)C(=O)C[C@@H](c1ccccc1)O2 [CHARTACEONE A3]	0	–
< 4.30	5.13	–	O=C(O)CCC[C@@H](/C=C/c1ccccc1)c1c(O)cc2c(c1O)C(=O)C[C@@H](c1ccccc1)O2 [CHARTACEONE A4]	6	–
–	–	–	CC(=O)O[C@@]12CO[C@@H]1C[C@H](O)[C@@]1(C)C(=O)[C@H](O)C3=C(C)[C@@H](OC(=O)[C@H](O)[C@@H](NC(=O)OC(C)(C)C)c4ccccc4)C[C@@](O)([C@@H](OC(=O)c4ccccc4)[C@H]21)C3(C)C [DOCETAXEL]	–	7.82
–	–	Not Active	O=C1C[C@@H](c2ccccc2)Oc2cc(O)cc(O)c21 [PINOCEMBRIN]	0	–
